Data as given in US9623049B2, “Immunotherapy using redirected allogeneic cells” (YEDA RESEARCH AND DEVELOPMENT CO. LTD., priority 2010, dated 2017).

Columns and labels:
[1] = molecular target: S1P2 (Homo sapiens, UniProt O95136); conditions: at concentrations up to 10 μM; cited from earlier work
[2] = molecular target: T1, S1P3 (Homo sapiens, UniProt Q99500); conditions: at concentrations up to 10 μM; cited from earlier work
[3] = molecular target: T2, S1P4 (Homo sapiens, UniProt O95977); conditions: at concentrations up to 10 μM; cited from earlier work
T2 sequence (O95977 1-384): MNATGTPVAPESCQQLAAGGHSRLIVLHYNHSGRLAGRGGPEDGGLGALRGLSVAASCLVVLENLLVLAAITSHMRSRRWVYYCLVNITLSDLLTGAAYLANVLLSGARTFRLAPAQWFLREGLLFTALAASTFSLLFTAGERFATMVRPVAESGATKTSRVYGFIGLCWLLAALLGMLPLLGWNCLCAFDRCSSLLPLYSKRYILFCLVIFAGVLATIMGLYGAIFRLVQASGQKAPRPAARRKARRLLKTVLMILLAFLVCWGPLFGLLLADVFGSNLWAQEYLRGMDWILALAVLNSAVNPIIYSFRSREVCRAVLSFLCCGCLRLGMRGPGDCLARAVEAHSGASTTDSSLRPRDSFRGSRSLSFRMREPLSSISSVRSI

[4] = molecular target: S1P5 receptors (Homo sapiens, UniProt Q9H228); conditions: at concentrations up to 10 μM; cited from earlier work
Chain of S1P5 receptors (Q9H228 whole entry): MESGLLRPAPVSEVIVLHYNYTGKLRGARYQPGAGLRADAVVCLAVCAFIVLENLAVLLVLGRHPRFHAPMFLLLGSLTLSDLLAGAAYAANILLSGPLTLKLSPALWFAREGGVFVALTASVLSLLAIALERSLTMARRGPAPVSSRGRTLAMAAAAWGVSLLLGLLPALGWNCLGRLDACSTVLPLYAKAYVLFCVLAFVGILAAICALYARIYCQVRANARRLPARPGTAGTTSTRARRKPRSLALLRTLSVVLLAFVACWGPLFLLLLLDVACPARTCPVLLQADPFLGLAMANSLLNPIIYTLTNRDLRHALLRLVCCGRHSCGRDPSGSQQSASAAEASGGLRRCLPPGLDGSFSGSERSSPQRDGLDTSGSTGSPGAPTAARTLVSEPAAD

[5] = molecular target: S1P1 (Homo sapiens, UniProt P21453); conditions: high affinity for S1P1; cited from earlier work
Chain of S1P1 (P21453 whole entry): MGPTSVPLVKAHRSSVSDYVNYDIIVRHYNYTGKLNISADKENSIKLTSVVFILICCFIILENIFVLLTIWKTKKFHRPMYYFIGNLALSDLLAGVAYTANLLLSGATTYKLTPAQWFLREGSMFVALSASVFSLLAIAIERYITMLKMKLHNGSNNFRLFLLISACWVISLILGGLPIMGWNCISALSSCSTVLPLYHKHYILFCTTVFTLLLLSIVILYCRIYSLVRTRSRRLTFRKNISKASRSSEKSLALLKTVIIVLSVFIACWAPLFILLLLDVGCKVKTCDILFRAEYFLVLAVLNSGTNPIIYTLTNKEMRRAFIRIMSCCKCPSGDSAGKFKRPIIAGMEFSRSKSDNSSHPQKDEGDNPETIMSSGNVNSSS

[6] = molecular target: T1, S1P3; conditions: read-out: ED50 (the source's name); cited from earlier work
[7] = in vivo; cited from earlier work
[8] = test system: Renca-Her2/neu tumor; experiment: Survival of Renca-Her2/neu tumor bearing mice after irradiation and T-body transfer (Example 10); format: in vivo, Balb/c mice
Protocol: Adoptive transfer experiments. Mice were injected with […] Renca-Her2/neu cells iv on day 1. All mice (including the control group) were irradiated on day 7 with 200 or 400 rads (137Cs source). Prior to transfer, all T cells were activated with Con-A 1 μg/ml for 48 hours, and then cultured for 3-5 more days with 350 u/ml IL-2. Either 30×10^6 or 108 T cells were transferred in a split dose on days 8 and 10. In some experiments, FTY720 was injected ip (0.3 mg/kg) on days 8-18. Donor cells were either from wildtype mice (Balb/c or C57BL/6) or from N29 CAR transgenic mice (Balb/c or C57BL/6 backgrounds). In some cases, T-bodies from wild type mice (Balb/c or C57Bl) were transduced with the CAR.
To investigate the potential of allogeneic adoptive cell therapy, the BALB/c derived mouse renal cell carcinoma (Renca) cell line expressing the human Her2/neu was used. Following intravenous inoculation of the tumor, experimental metastases mainly developed in the lungs, yet, as was reported in similar systems (ref. 62, 63) extra-pulmonary metastases also developed. […] Adoptive transfer of T cells redirected with a Her2/neu-specific chimeric antigen receptor (‘T-bodies’) was performed on days 8 and 10 (FIG. 21). The CAR is composed of a scFv fragment derived from the Her2/Neu-specific N29 antibody fused to a CD28 co-activation moiety and FcRγ signaling sequences (ref. 8). […] T-bodies were obtained from transgenic (Tg) mice of BALB/c (Balb-N29) or C57BL/6 (Black-N29) background, or by the transduction of wild type T cells with a retrovector harboring the Her2/neu-specific CAR. Transduced T cells were activated as part of their transduction, while naïve transgenic (Tg) T cells were also activated to facilitate comparison with transduced T cells.

[9] = FACS analysis of blood and spleen lymphocytes after transfer of allogeneic T-bodies with or without FTY720; format: in vivo, Balb/c mice
Protocol: Prior to splenocyte staining, RBC were lysed using ACK buffer. Lymphocytes (1×10^6) were incubated with the appropriate antibodies in staining buffer (5% BSA, 0.05% sodium azide in phosphate-buffered saline (PBS)) for 30 minutes on ice. Alternatively, Annexin V staining buffer was used as indicated. CFSE (Carboxyfluorescein succinimidyl ester) labeling was performed according to the manufacturer's instructions (Molecular Probes. Eugene, Oreg.). Cells were analyzed by flow cytometry (LSRII, Becton Dickinson. Mountain View. Calif.) and FacsDiva software (Becton Dickinson).
This enhanced persistence of allogeneic T-bodies can explain the increased survival of tumor bearing mice treated with allogeneic T-bodies and FTY720.

[10] = test system: Renca-erbb2 pulmonary metastases
Protocol: After determining safe regimens for adoptive transfer, the inventors tested the efficacy of tumor rejection by CR redirected T cells. The inventors used the Renca-erbb2, renal cancer cell line, stably transfected with erbB2 (HER2) which was injected intravenously into Balb/c mice to generate experimental pulmonary metastases. As effectors, the inventors used splenocytes from transgenic mice expressing a HER2 specific chimeric receptor (based on the N29 antibody derived scFv, FIGS. 7A-B) under the CD2 promoter (which is expressed in T and NK cells [8]). The HER2-specific transgenic mice were kept on two backgrounds: C57Bl and Balb/c (named C57Bl-N29 and Balb-N29 respectively). Wild type Balb/c mice were injected with the Renca-erbb2 on day 1, irradiated on day 7, and HER2 specific T-bodies were injected on day 8 (and also on day 10 and 12 in some cases).
The inventors therefore compared the efficacy of allogeneic (C57Bl-N29) to syngeneic (Balb-N29) T-bodies, and to ensure that allogeneic cells mediate a specific antitumor response (and not just an allogeneic response), they also tested the effect of activated wild type C57Bl cells. Previous experiments in the inventors' lab have established that the minimal regimen which provides significant therapeutic benefit (boosting median survival to 90 days) using syngeneic Balb-N29 is irradiation with 200 rad and transfer of 3 doses of 10 million cells each (abbreviated as 200/30 regimen) complemented with low dose IL-2 (1000 u) twice daily. The purpose was to test if one can provide therapeutic benefit in this model using allogeneic C57Bl-N29 cells. The inventors used the initial regimen as a starting point with one important difference: instead of using naïve transgenic cells, the cells were pre-activated before transfer for 48 hours with concanavalin A. The reason for the change was to simulate a more clinically relevant situation in which lymphocytes will need to be activated in order to facilitate retroviral transduction with the chimeric receptor.

[11] = 400 rads and 10^8 allo-T-bodies with FTY720

T1 sequence (Q99500 whole entry, species assumed): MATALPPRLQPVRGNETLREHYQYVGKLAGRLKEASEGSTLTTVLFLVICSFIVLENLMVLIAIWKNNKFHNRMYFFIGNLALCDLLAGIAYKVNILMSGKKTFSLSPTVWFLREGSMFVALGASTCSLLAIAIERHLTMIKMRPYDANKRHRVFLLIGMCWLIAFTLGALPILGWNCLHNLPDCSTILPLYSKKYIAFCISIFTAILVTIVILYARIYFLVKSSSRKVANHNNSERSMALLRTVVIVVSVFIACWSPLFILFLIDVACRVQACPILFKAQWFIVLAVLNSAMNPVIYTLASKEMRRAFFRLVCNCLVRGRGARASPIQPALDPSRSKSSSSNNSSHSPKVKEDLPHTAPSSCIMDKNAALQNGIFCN
Chain of S1P2 (O95136 whole entry, species assumed): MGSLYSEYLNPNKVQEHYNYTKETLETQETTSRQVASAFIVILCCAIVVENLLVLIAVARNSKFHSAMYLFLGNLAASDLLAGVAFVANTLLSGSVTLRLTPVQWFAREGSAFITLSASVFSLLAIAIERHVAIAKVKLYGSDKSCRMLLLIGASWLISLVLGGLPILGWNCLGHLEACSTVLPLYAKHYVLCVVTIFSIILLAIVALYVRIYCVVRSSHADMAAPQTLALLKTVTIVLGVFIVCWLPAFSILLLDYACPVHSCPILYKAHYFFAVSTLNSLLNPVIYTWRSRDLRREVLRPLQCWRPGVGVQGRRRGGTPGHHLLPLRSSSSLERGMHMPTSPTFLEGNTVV

Which results are given for `FC(F)(F)c1cccc(-c2noc(-c3cc(-c4ccccc4)c(C(F)(F)F)s3)n2)c1` [SEW2871, 5-[4-Phenyl-5-(trifluoromethyl)thiophen-2-yl]-3-[3-(trifluoromethyl)phenyl]1,2,4-oxadiazole]?
receptor activation [1]: does not activate; receptor activation [2]: does not activate; receptor activation [3]: does not activate; receptor activation [4]: does not activate

Which results are given for `NC(CO)(CCc1ccc(Sc2cccc(Oc3ccccc3)c2)cc1Cl)COP(=O)(O)O` (stereo not shown) [KRP-203 phosphate, 2-ammonio-4-(2-chloro-4-(3-phenoxyphenylthio)phenyl)-2-(hydroxymethyl)butyl hydrogen phosphate]?
ED50 [5]: in the nM range; EC50 [6]: > 1000 nM; reduction of incidence of bradycardia compared to FTY720 [7]: 10 fold

Which results are given for `CCCCCCCCc1ccc(CCC(N)(CO)CO)cc1.Cl` [FTY720, 2-amino-2-[2-(4-octylphenyl)ethyl]propane-1,3-diol]?
effect of FTY720 alone on survival of tumor bearing mice ([8]; 0.3 mg/kg i.p for the first 10 days after irradiation, no T-bodies): not to affect the survival of tumor bearing mice; long term survival (>350 days) [8, 11]: most of the remaining mice survived long term; mice died of GvHD [8, 11]: 16%; mice surviving long term (>350 days) ([8]; 400 rads and 30x10^6 allogeneic T-bodies with FTY720 0.3 mg/kg ip 10 days): 58%; median survival ([8]; 400 rads and 30x10^6 syngeneic T-bodies with FTY720 0.3 mg/kg ip 10 days): 90 days; lymphocyte egression to the blood ([9]; 4 days after transfer of allogeneic T-bodies, CD3 staining of blood): inhibited lymphocyte egression to the blood; allo-T-bodies in the spleen ([9]; day 7 after transfer, anti-H2Kb staining, with vs without FTY720): higher numbers of allo-T-bodies detected in the spleen on day 7; long term survivors ([10]; 200/100 regimen, C57Bl-N29 with FTY720): 80%; surviving after day 250 ([10]; 400/30 regimen, C57Bl-N29 with FTY720): ≥ 50%; median survival ([10]; 400/30 regimen, C57Bl-N29 with FTY720 0.3 mg/kg ip daily days 8-18): not reached; GVHD mortality (mice died) ([10]; 400/30 regimen, activated wild type C57Bl cells with FTY720 0.3 mg/kg ip daily days 8-18): 2/6; tumor bearing mice survived long term ([10]; temporary FTY720 treatment added to allogeneic cells (FIG. 18)): 50-80%
